Experiment [1] concerns the target human OX2R (Homo sapiens (Human), UniProt O43614). As to the kind of experiment: Measurement of antagonistic activity against orexin receptors (intracellular calcium, CHOOX2R cells). In kind it is cell-based. The method, then: (§1) The Chinese hamster ovary (CHO) cell lines CHOOX1R and CHOOX2R were established by modifying CHO cells to constantly express the NFAT-luciferase gene and either the human OX1R or human OX2R gene. Those cells were plated at 10,000 cells/well in 96-well multiplates with DMEM (manufactured by Sigma-Aldrich Co. LLC) supplemented with 5% FBS (manufactured by Thermo Scientific Inc.) and incubated at 37° C. and 5% CO2 for 48 hours. After removal of the medium, 100 μL of an assay buffer (20 mM HEPES (manufactured by Sigma-Aldrich Co. LLC), Hank's balanced salt solution (manufactured by Gibco), 0.1% BSA (manufactured by Sigma-Aldrich Co. LLC), 2.5 mM probenecid acid (manufactured by Wako Pure Chemical Industries, Ltd.), pH 7.4) containing 5 μM Fura-2AM (manufactured by Cayman Chemical Co.) was added to each well, and incubated at 37° C. and 5% CO2 for 60 minutes. After removal of the buffer containing Fura-2AM, 75 μL of the assay buffer was added to each well. Then, […] of the assay buffer containing a test compound at various concentrations and OX-A (manufactured by Peptide Institute, Inc.) was added to start the reaction. The change in intracellular calcium ion concentration induced by the reaction was evaluated by the ratio of fluorescent intensities, which were measured at a wavelength of 510 nm based on the two wavelength excitation approach using FDSS 7000 (manufactured by Hamamatsu Photonics K.K.) with fluorescence excitation at 340 nm and 380 nm. A concentration-response curve on the antagonistic activity was plotted from the values of maximal fluorescent intensity ratio determined when various concentrations of a test compound were added in the presence of […] of OX-A, where a value of maximal fluorescent intensity ratio determined by adding 300 pM of OX-A alone corresponds to 100% and a value of maximal fluorescent intensity ratio determined by adding the assay buffer alone corresponds to 0%. Based on the resulting non-linear regression curve, the 50% maximal inhibitory concentration (IC50) was calculated. Each test compound was dissolved in DMSO to a concentration of 10 mM (the final concentration of DMSO was 1%), and then diluted with the assay buffer to give a final concentration of 3.0×10^−10 M to 1.0×10^−5 M (a common ratio of 3), while OX-A was diluted to a final concentration of 300 pM. The experiment was performed in quadruplicate plates, and the results of the four independent measurements were averaged to give the value of each reaction, and then the IC50 of a sample was calculated. If the sample number was 2 or more, the averaged IC50 was used.
In general terms: Calcium assays in cells follow changes in intracellular calcium, usually with a dye or a luminescent sensor.

Experiment [2] addresses human OX1R (Homo sapiens (Human), UniProt O43613). As to the kind of experiment: Measurement of antagonistic activity against orexin receptors (intracellular calcium, CHOOX1R cells). In kind it is cell-based. The note with it: for antagonistic activity against human OX1 receptor (in words): summary of Table 6. The protocol:
as §1

[3] abbreviates: CHOOX2R cells, 300 pM OX-A, Fura-2 calcium, read-out: OX2 (IC50).
The mark [4] stands for this setting: CHOOX1R cells, 300 pM OX-A, Fura-2 calcium, read-out: OX1 (IC50).

Like-named read-outs stand apart in the source and are kept apart here.

The record followed here is patent US10377763B2, “Morphinan derivative and medical usage thereof” (UNIVERSITY OF TSUKUBA, priority 2015, dated 2019).

human OX2R, sequence (O43614 whole entry): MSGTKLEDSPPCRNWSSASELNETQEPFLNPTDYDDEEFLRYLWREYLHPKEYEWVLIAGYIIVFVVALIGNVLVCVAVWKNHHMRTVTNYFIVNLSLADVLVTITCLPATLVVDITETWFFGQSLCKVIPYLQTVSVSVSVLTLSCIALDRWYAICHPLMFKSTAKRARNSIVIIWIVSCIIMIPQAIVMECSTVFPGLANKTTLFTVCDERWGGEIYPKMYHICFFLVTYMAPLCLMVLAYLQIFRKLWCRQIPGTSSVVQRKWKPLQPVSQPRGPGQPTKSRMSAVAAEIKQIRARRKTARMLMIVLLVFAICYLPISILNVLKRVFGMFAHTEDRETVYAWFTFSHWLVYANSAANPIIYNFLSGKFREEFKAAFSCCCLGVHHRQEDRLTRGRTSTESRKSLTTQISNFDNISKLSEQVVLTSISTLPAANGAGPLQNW
human OX1R, sequence (O43613 whole entry): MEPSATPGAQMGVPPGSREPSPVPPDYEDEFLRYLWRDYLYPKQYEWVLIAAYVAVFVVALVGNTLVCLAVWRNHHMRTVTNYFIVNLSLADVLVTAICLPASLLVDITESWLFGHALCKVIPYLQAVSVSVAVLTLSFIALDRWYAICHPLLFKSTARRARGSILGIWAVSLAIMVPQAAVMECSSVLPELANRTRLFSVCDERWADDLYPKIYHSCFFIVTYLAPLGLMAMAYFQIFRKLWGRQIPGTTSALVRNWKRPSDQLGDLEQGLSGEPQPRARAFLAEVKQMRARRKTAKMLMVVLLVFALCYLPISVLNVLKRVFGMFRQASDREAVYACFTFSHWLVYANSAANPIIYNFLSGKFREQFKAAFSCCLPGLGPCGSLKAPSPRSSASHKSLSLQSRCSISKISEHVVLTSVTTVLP

By IC50 is commonly meant the midpoint of a concentration-inhibition curve. As for `COc1ccc2c3c1O[C@H]1[C@H](N(C)C(=O)NCc4ccccc4)CC[C@@]4(O)[C@@H](C2)N(S(=O)(=O)c2ccccc2)CC[C@]314` [Example 42], the IC50 in experiment [1] (setting [3]) was more than 10 µM; in experiment [2] (setting [4]), 0.688 µM. Besides, the “antagonistic activity against human OX1 receptor (in words)” value (“antagonistic activity” below) in experiment [2] was “potent and selective antagonistic activity”.

Regarding `COc1ccc2c3c1O[C@H]1[C@H](N(C)C(=O)/C=C/c4ccoc4)CC[C@@]4(O)[C@@H](C2)N(C(=O)c2ccc(C)cc2)CC[C@]314` [Example 35], the IC50 in experiment [1] (setting [3]) is more than 10 µM; in experiment [2] (setting [4]) it was 0.571 µM. The “antagonistic activity” value in experiment [2] was “potent and selective antagonistic activity”.

On to `CCCCS(=O)(=O)N1CC[C@]23c4c5ccc(OC)c4O[C@H]2[C@H](N(C)C(=O)/C=C/c2ccoc2)CC[C@@]3(O)[C@H]1C5` [Example 27], for which the IC50 in experiment [1] (setting [3]) was more than 10 µM; in experiment [2] (setting [4]), 0.0878 µM. The “antagonistic activity” value in experiment [2] was “potent and selective antagonistic activity”.

For the molecule `COc1ccc2c3c1O[C@H]1[C@H](N(C)C(=O)/C=C/c4ccoc4)CC[C@@]4(O)[C@@H](C2)N(S(=O)(=O)c2ccccc2[N+](=O)[O-])CC[C@]314` [Example 8], the IC50 was more than 10 µM in experiment [1] (setting [3]) and 0.144 µM in experiment [2] (setting [4]). Besides, the “antagonistic activity” value in experiment [2] was “potent and selective antagonistic activity”.

Turning to `COc1ccc2c3c1O[C@H]1[C@H](N(C)C(=O)/C=C/c4ccoc4)CC[C@@]4(O)[C@@H](C2)N(S(=O)(=O)c2c(C)cc(C)cc2C)CC[C@]314` [Example 23], the values for the IC50 in experiment [1] (setting [3]) and in experiment [2] (setting [4]) were more than 10 µM and 0.121 µM, respectively. For the same molecule, the “antagonistic activity” value in experiment [2] is “potent and selective antagonistic activity”.

As to `COc1ccc2c3c1O[C@H]1[C@H](N(C)C(=O)/C=C/c4ccoc4)CC[C@@]4(O)[C@@H](C2)N(S(=O)(=O)c2ccccc2C(F)(F)F)CC[C@]314` [Example 5], the IC50 was more than 10 µM in experiment [1] (setting [3]) and 0.419 µM in experiment [2] (setting [4]). Further, the “antagonistic activity” value in experiment [2] was “potent and selective antagonistic activity”.

As for `COc1ccc2c3c1O[C@H]1[C@H](N(C)C(=O)/C=C/c4ccoc4)CC[C@@]4(O)[C@@H](C2)N(S(=O)(=O)c2cccc(F)c2)CC[C@]314` [Example 15], the IC50 is more than 10 µM in experiment [1] (setting [3]) and 0.112 µM in experiment [2] (setting [4]). In experiment [2], the “antagonistic activity” value was “potent and selective antagonistic activity”.

Take `COc1ccc2c3c1O[C@H]1[C@H](N(C)C(=O)/C=C/c4ccoc4)CC[C@@]4(O)[C@@H](C2)N(S(=O)(=O)c2cccc5cccnc25)CC[C@]314` [Example 25]: the IC50 in experiment [1] (setting [3]) is more than 10 µM; in experiment [2] (setting [4]) it was 0.198 µM. In addition, in experiment [2], the “antagonistic activity” value is “potent and selective antagonistic activity”.

For the molecule `COc1ccc2c3c1O[C@H]1[C@H](N(C)C(=O)C=Cc4ccccc4)CC[C@@]4(O)[C@@H](C2)N(S(=O)(=O)c2ccccc2)CC[C@]314` [Example 38, N-[(4R,4aS,7R,7aR,12bS)-4a-hydroxy-9-methoxy-3-(phenylsulfonyl)-2,3,4,4a,5,6,7,7a-octahydro-1H-4,12-methanobenzofuro[3,2-e]isoquinolin-7-yl]-N-methylcinnamide], the IC50 is more than 10 µM in experiment [1] (setting [3]) and 0.128 µM in experiment [2] (setting [4]). Moreover, in experiment [2], the “antagonistic activity” value was “potent and selective antagonistic activity”.

As to `COc1ccc2c3c1O[C@H]1[C@H](N(C)C(=O)/C=C/c4ccoc4)CC[C@@]4(O)[C@@H](C2)N(S(=O)(=O)c2ccc(C)cc2)CC[C@]314` [Example 4], the IC50 in experiment [1] (setting [3]) is more than 10 µM; in experiment [2] (setting [4]), 0.162 µM. Besides, the “antagonistic activity” value in experiment [2] was “potent and selective antagonistic activity”.

`COc1ccc2c3c1O[C@H]1[C@H](N(C)Cc4ccccc4)CC[C@@]4(O)[C@@H](C2)N(C(=O)OC(C)(C)C)CC[C@]314` [Comparative Example 2, tert-butyl(4R,4aS,7R,7aR,12bS)-7-[benzyl(methyl)amino]-4a-hydroxy-9-methoxy-1,2,4,4a,5,6,7,7a-octahydro-3H-4,12-methanobenzofuro[3,2-e]isoquinolin-3-carboxylate, reference compound]: the values for the 50% inhibitory concentration (IC50) in experiment [1] (setting [3]) and in experiment [2] (setting [4]) were more than 10 µM and 2.85 µM, respectively. Further, in experiment [2], the “antagonistic activity” value was “very weak antagonistic activity”.

For the molecule `COc1ccc2c3c1O[C@H]1[C@H](N(C)C(=O)/C=C/c4ccoc4)CC[C@@]4(O)[C@@H](C2)N(S(=O)(=O)c2ccccc2C#N)CC[C@]314` [Example 11], the IC50 in experiment [1] (setting [3]) was more than 10 µM; in experiment [2] (setting [4]), 0.0491 µM. Further, the “antagonistic activity” value in experiment [2] is “potent and selective antagonistic activity”.

As for `COc1ccc2c3c1O[C@H]1[C@H](N(C)C(=O)/C=C/c4ccoc4)CC[C@@]4(O)[C@@H](C2)N(S(=O)(=O)c2ccccc2C)CC[C@]314` [Example 2], the IC50 in experiment [1] (setting [3]) was more than 10 µM; in experiment [2] (setting [4]), 0.03 µM. In experiment [2], the “antagonistic activity” value was “potent and selective antagonistic activity”.

Take `COc1ccc2c3c1O[C@H]1[C@H](N(C)C(=O)/C=C/c4ccoc4)CC[C@@]4(O)[C@@H](C2)N(S(=O)(=O)c2cccc(C)c2)CC[C@]314` [Example 3]: the IC50 was more than 10 µM in experiment [1] (setting [3]) and 0.024 µM in experiment [2] (setting [4]). For the same molecule, the “antagonistic activity” value in experiment [2] is “potent and selective antagonistic activity”.

As for `COc1ccc2c3c1O[C@H]1[C@H](N(C)C(=O)/C=C/c4ccoc4)CC[C@@]4(O)[C@@H](C2)N(S(=O)(=O)c2cccc(Cl)c2)CC[C@]314` [Example 18], the IC50 in experiment [1] (setting [3]) is more than 10 µM; in experiment [2] (setting [4]), 0.195 µM. In addition, in experiment [2], the “antagonistic activity” value was “potent and selective antagonistic activity”.

In the case of `COc1ccc2c3c1O[C@H]1[C@H](N(C)C(=O)/C=C/c4ccoc4)CC[C@@]4(O)[C@@H](C2)N(S(=O)(=O)c2ccccc2)CC[C@]314` [Example 1, (E)-3-(furan-3-yl)-N-[(4R,4aS,7R,7aR,12bS)-4a-hydroxy-9-methoxy-3-(phenylsulfonyl)-2,3,4,4a,5,6,7,7a-octahydro-1H-4,12-methanobenzofuro[3,2-e]isoquinolin-7-yl]-N-methylacrylamide], the IC50 in experiment [1] is more than 10 µM. In experiment [2], the IC50 worked out at 0.0828 µM; the “antagonistic activity” value was “potent and selective antagonistic activity”.

Consider `CN(C(=O)/C=C/c1ccoc1)[C@@H]1CC[C@@]2(O)[C@H]3Cc4ccc(O)c5c4[C@@]2(CCN3CC2CC2)[C@H]1O5.Cl` [Comparative Example 1, (E)-N-[(4R,4aS,7R,7aR,12bS)-3-(cyclopropylmethyl)-4a,9-dihydroxy-2,3,4,4a,5,6,7,7a-octahydro-1H-4,12-methanobenzofuro[3,2-e]isoquinolin-7-yl]-3-(furan-3-yl)-N-methylacrylamide hydrochloride, reference compound], for which the IC50 in experiment [1] (setting [3]) was more than 10 µM; in experiment [2] (setting [4]) it was 1.65 µM. For the same molecule, the “antagonistic activity” value in experiment [2] was “very weak antagonistic activity”.

Take `COc1ccc2c3c1O[C@H]1[C@H](N(C)C(=O)/C=C/c4ccoc4)CC[C@@]4(O)[C@@H](C2)N(S(=O)(=O)c2cccc(Br)c2)CC[C@]314` [Example 21]: the IC50 was more than 10 µM in experiment [1] (setting [3]) and 0.2 µM in experiment [2] (setting [4]). Besides, in experiment [2], the “antagonistic activity” value is “potent and selective antagonistic activity”.

With `COc1ccc2c3c1O[C@H]1[C@H](N(C)C(=O)/C=C/c4ccoc4)CC[C@@]4(O)[C@@H](C2)N(S(=O)(=O)c2ccc(N(C)C)cc2)CC[C@]314.Cl` [Example 32], the IC50 is more than 10 µM in experiment [1] (setting [3]) and 0.0117 µM in experiment [2] (setting [4]). The “antagonistic activity” value in experiment [2] is “potent and selective antagonistic activity”.

For the molecule `COc1ccc2c3c1O[C@H]1[C@H](N(C)C(=O)/C=C/c4ccoc4)CC[C@@]4(O)[C@@H](C2)N(S(=O)(=O)C2CC2)CC[C@]314` [Example 28], the IC50 in experiment [1] (setting [3]) is more than 10 µM; in experiment [2] (setting [4]) it was 0.101 µM. The “antagonistic activity” value in experiment [2] was “potent and selective antagonistic activity”.

With `COc1ccc2c3c1O[C@H]1[C@H](N(C)C(=O)/C=C/c4ccoc4)CC[C@@]4(O)[C@@H](C2)N(C(=O)C2CC2)CC[C@]314` [Example 34], the IC50 is more than 10 µM in experiment [1] (setting [3]) and 0.259 µM in experiment [2] (setting [4]). Also, the “antagonistic activity” value in experiment [2] was “potent and selective antagonistic activity”.
